Laboratory results reported in patent publication US20250034169A1, “NOVEL PYRIMIDOPYRIDINE COMPOUND, PHARMACEUTICAL COMPOSITION THEREOF, AND USE THEREOF” (SUNSHINE LAKE PHARMA CO., LTD., priority 2021, published 2025).
Read-outs that look alike come from different tables or passages of the source.

Columns and labels:
intracellular pERK = experiment: Inhibitory effect on intracellular pERK, In-Cell Western, AGS cells; assay type: cell-based; conditions: Homo sapiens, read-out: Inhibitory effect on intracellular pERK, IC50
[1] = Stability in human liver microsomes; assay type: in vitro ADME; conditions: 1 μM; for CLHep / predicted in vivo clearance / ER: human liver microsomes; for ER: slow ER < 0.3, moderate 0.3 < ER < 0.7, fast ER > 0.7; for microsomal CLint at 1 μM / half-life at 1 μM: pH 7.4, human liver microsomes 0.5 mg/mL, 37° C.; for microsomal CLint at 1 μM: read-out: CLint; for half-life at 1 μM: read-out: T1/2
Description: (§1) Objective: To evaluate the stability of the compounds of the present invention in human and mouse liver microsomes by LC-MS/MS.
(§2) The ratio of the sample peak area to the internal standard peak area was obtained by LC/MS/MS, and the content of the compounds at 0 min was regarded as 100%, and the relative content of the compounds at each time point was calculated. The half-life of the compound was calculated by plotting the “relative content of the compound” against the “incubation time”, and the intrinsic clearance was calculated, in which the half-life and intrinsic clearance of the compound in human and mouse liver microsomes were determined in Table 3 and Table 4, respectively.

[2] = Stability in mouse liver microsomes; assay type: in vitro ADME; conditions: 1 μM; for CLHep / CLin vivo / ER: mouse liver microsomes; for ER: slow ER < 0.3, moderate 0.3 < ER < 0.7, fast ER > 0.7; for microsomal CLint at 1 μM / half-life at 1 μM: pH 7.4, mouse liver microsomes 0.5 mg/mL, 37° C.; for microsomal CLint at 1 μM: read-out: CLint; for half-life at 1 μM: read-out: T1/2
Description: as §1, §2

in vivo = experiment: in vivo; design: species or system BALB/c mice; conditions: BALB/c, mouse, 2 mg/kg
Description: The inventors performed a pharmacokinetic evaluation of the compounds of the present invention in mice.
The compound of the present invention was in the form of a solution of 5% DMSO+30% PEG400+65% Saline, 10% DMSO+10% Kolliphor HS15+80% Saline, 10% DMSO+89%(25% SBE-B-CD)+(2% HCl), 20% PEG400+80% sterilize water for injection or 10% DMA+10% HS15+30% PEG400+50% sterilize water for injection, the test animals were administered, and the animals were fasted for 12 h before administration, and water was free to drink. The test animals were administered intravenously at a dose of 2 mg/kg, blood (approximately 0.15 mL) was taken intravenously at the following time points after administration: 0.083 h, 0.25 h, 0.5 h, 1.0 h, 2.0 h, 5.0 h, 7.0 h, and 24 h, EDTA-K2 was pre-added as an anticoagulant in the blood collection tube, the blood samples were centrifuged at 12,000 rpm for 2 min, then plasma was collected and stored at −20° C. or −70° C.
The plasma samples collected above were treated (after the frozen plasma thawed at room temperature, vortexed for 15 s for mixing, 10-20 μL of plasma was taken and added with 120-150 μL of acetonitrile solution containing internal standard, the mixture was vortexed for 5 min for mixing, then centrifuged at 4,000 rpm for 5 min, 100 μL of supernatant was taken, and 120-150 μL of methanol/water (v/v=1/1) was added to mix), and the compound concentration in plasma was analyzed by LC-MS/MS. The pharmacokinetic parameters of the compounds of the present invention for intravenous administration in mice are shown in Table 5.

KRAS G12D-GTP & cRAF = KRAS G12D-GTP & cRAF (Homo sapiens (Human), UniProt P01116, G12D); experiment: KRAS G12D/cRAF binding experiment (HTRF); conditions: competitive binding
Sequence of KRAS G12D-GTP & cRAF (P01116-2 other isoform, or with tags, fused parts or gaps G12D): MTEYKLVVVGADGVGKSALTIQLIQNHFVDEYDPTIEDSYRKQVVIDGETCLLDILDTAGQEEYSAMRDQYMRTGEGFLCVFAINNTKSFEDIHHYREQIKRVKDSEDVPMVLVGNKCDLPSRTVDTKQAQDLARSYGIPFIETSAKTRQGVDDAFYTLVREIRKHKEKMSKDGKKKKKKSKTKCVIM

KRAS G12D-GTP & SOS1 = KRAS G12D-GTP & SOS1 (Homo sapiens (Human), UniProt P01116, G12D); experiment: KRAS G12D/SOS1 binding experiment (HTRF); conditions: competitive binding
Sequence of KRAS G12D-GTP & SOS1 (P01116-2 other isoform, or with tags, fused parts or gaps G12D): as above

Compound | CLHep [1] | predicted in vivo clearance [1] | ER [1] | microsomal CLint at 1 μM [1] | half-life at 1 μM [1] | CLHep [2] | CLin vivo [2] | ER [2] | microsomal CLint at 1 μM [2] | half-life at 1 μM [2] | also measured
C#Cc1c(F)ccc2cc(O)cc(-c3nc(C#C)c4c(N5CC6CCC(C5)N6)nc(OC[C@@]56CCCN5C[C@H](F)C6)nc4c3F)c12 [Compound 23] | 23.0 mL/min/kg | 10.9 mL/min/kg | 0.53 | 18.4 µL/min/mg | 75.3 min | 187.4 mL/min/kg | 60.8 mL/min/kg | 0.68 | 47.6 µL/min/mg | 29.1 min | IC50 (intracellular pERK; AGS, 3 h): 0.6 nM; AUC(0-inf) (in vivo; mice, intravenous, read-out: AUCINF): 2160 ng·h/mL; AUC(0-t) (in vivo; mice, intravenous, read-out: AUClast): 2140 ng·h/mL; clearance (in vivo; mice, intravenous, read-out: Cl): 16 mL/min/kg; Cmax (in vivo; mice, intravenous, read-out: Cmax): 3550 ng/mL; MRT last (in vivo; mice, intravenous, read-out: MRTlast): 42 min; half-life (in vivo; mice, intravenous, read-out: T1/2 (converted)): 50.4 min; Tmax (in vivo; mice, intravenous, read-out: Tmax): 4.98 min; Vd (in vivo; mice, intravenous, read-out: Vss): 0.69 L/kg
C#Cc1nc(-c2cc(O)cc3cccc(Cl)c23)c(F)c2nc(OC[C@@]34CCCN3C[C@H](F)C4)nc(N3CC4CCC(C3)N4)c12 [Compound 67] | 14.5 mL/min/kg | 8.5 mL/min/kg | 0.41 | 11.6 µL/min/mg | 119 min | 178.5 mL/min/kg | 59.8 mL/min/kg | 0.66 | 45.3 µL/min/mg | 30.6 min | IC50 (KRAS G12D-GTP & cRAF): 5.4 nM; IC50 (KRAS G12D-GTP & SOS1): 13.5 nM; IC50 (intracellular pERK; AGS cells, 3 h incubation, In-Cell Western): 0.4 nM; AUC(0-inf) (in vivo; iv): 3230 ng·h/mL; AUC(0-t) (in vivo; iv): 3210 ng·h/mL; Cmax (in vivo; iv): 4300 ng/mL; MRT last (in vivo; iv): 45 min; Tmax (in vivo; iv): 4.98 min; Vd (in vivo; iv): 0.5 L/kg; clearance (in vivo; iv): 10 mL/min/kg; half-life (in vivo; iv): 52.2 min
